Results on 12 compounds are retold here after US20260085034A1, “N-(BENZHYDRYL)CYCLOALKYLCARBOXAMIDE DERIVATIVES AS INHIBITORS OF GLYCOGEN SYNTHASE 1 (GYS1) AND METHODS OF USE THEREOF” (Maze Therapeutics, Inc., priority 2022, published 2026).

In experiment [1] the target is T1, recombinant hGYS1/GN1 protein (Homo sapiens, UniProt P13807).
T1 sequence (P13807 1-737): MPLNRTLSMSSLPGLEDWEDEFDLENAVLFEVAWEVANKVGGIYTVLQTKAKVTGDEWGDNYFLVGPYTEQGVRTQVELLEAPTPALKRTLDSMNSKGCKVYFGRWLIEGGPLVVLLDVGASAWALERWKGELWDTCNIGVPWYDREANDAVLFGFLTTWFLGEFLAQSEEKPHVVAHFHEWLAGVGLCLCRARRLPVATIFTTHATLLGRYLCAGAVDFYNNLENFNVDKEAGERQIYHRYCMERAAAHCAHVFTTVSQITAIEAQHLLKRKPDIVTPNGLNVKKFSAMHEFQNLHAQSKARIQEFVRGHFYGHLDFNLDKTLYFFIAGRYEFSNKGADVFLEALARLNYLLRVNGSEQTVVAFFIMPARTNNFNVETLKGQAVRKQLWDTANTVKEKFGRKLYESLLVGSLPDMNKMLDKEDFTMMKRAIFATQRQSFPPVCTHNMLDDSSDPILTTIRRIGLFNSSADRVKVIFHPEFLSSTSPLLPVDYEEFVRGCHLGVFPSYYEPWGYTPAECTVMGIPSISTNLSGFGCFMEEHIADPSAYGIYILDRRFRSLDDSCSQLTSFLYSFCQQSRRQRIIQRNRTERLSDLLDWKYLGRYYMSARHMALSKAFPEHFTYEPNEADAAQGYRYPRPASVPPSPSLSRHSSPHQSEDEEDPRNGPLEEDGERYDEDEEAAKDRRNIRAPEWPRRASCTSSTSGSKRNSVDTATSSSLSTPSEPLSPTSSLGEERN
T1 sequence (P46976 1-350 partner): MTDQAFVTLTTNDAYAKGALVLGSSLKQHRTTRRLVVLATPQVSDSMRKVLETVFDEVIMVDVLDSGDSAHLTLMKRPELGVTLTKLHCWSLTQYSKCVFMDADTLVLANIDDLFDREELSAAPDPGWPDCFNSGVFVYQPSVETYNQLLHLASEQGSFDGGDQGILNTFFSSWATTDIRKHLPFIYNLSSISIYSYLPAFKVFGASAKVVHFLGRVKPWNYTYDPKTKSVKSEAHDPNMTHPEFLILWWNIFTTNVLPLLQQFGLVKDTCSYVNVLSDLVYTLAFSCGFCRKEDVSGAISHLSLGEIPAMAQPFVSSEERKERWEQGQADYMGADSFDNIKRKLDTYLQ
Description: GYS1 coupled enzyme assay (PK/LDH). The class given is biochemical. Conditions: geometric mean of at least 2 assay runs; NADH absorbance at 340 nm. An excerpt:
(§1) The GYS1 coupled enzyme assay is a kinetic biochemical assay that indirectly quantifies the rate of glycogen synthesis by coupling the conversion of GYS1 substrate UDP-glucose into UDP with downstream enzymatic reactions. UDP is released from UDP-glucose as glucose monomers are linked into the growing glycogen strand by GYS1. The coupled assay then proceeds with pyruvate kinase utilizing UDP and phospho(enol)pyruvate (PEP) to form pyruvate. Lactate dehydrogenase then converts pyruvate and NADH into lactate and NAD+. Oxidation of NADH to NAD+ can be measured continuously with a plate reader by quantifying the decrease in NADH absorbance at 340 nm over time.
Compounds that inhibit the hGYS1 enzyme and, subsequently, the downstream conversion of NADH to NAD+, were tested using assay ready plates (black, clear bottom 384 well plates) in a final DMSO reaction volume of 2.5% DMSO. The Assay Buffer contained 50 mM Tris pH 7.5, 2 mM MgCl2, and 100 mM KCl. Fresh stocks of BSA at a final concentration of 0.02% and TCEP at 1 mM were added before splitting buffer into hGYS1 buffer and substrate buffer. To the hGYS1 buffer, rabbit liver glycogen was added at a final concentration of 0.2% glycogen. Glucose-6-Phosphate was added at 1 mM, recombinant hGYS1/GN1 protein was added at 50 nM to the substrate buffer, phosphoenolpyruvate (PEP) was added at 2 mM, UDP-Glucose was added at 0.8 mM, NADH) was added at 0.6 mM, and Pyruvate Kinase/Lactate Dehydrogenase was added at 20 units/mL. The reaction was initiated by mixing hGYS1 buffer and substrate buffer at a 1:1 ratio. Both buffers were plated using a liquid dispensing device with hGYS1 buffer plated first followed by the substrate buffer. Plates were spun briefly to eliminate air bubbles and are immediately read in continuous mode at an absorbance of 340 nm, for 10 time points in one-minute increments, for a total of 10 minutes. The slope from these 10 time points was normalized to the positive and negative control wells. The duplicate % inhibition values are then averaged and fit to a Hill equation for dose response according to the Levenberg-Marquardt algorithm with the Hill equation maximum set to 100 and the minimum set to 0.
The results are shown in Table 3 below, which reports the IC50 of each compound. Unless otherwise specified, IC50 values are reported as the geometric mean of at least 2 assay runs on separate days. Each run represents the average of a technical replicate, where each compound was assayed twice in the same plate. As shown in the table below, the compounds of the present invention are potent inhibitors of human GYS1.

The target of experiment [2] is T2, recombinant hGYS2/GN1 protein (Homo sapiens, UniProt P54840).
T2 sequence (P54840 1-703): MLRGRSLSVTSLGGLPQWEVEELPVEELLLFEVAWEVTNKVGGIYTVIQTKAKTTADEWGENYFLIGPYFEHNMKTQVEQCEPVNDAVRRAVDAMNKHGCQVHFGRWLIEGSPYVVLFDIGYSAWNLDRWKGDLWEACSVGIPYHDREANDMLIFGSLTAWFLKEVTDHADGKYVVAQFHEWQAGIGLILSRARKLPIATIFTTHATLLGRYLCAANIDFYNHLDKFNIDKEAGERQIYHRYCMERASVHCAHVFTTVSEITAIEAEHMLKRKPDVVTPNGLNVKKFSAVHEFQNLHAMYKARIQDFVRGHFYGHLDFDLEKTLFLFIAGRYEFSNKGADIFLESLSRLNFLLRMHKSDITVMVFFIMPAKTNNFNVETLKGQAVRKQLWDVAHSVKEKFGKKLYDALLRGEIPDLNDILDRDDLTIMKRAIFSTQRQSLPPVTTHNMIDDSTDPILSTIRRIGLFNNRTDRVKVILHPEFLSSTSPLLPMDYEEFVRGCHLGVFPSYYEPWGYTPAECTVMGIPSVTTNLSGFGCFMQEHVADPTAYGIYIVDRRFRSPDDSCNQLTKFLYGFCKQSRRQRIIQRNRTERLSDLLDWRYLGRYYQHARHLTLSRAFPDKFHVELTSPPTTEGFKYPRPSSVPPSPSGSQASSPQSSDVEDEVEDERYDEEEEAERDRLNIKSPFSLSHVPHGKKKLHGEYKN
T2 sequence (P46976 1-350 partner): T1 sequence (P46976 1-350 partner)
The experiment can be described thus: GYS2 coupled enzyme assay (PK/LDH). The class given is biochemical. Conditions: geometric mean of at least 2 assay runs; NADH absorbance at 340 nm.
Source text: as §1, with “GYS2” for “GYS1”, “GYS2.” for “GYS1.”
Compounds that inhibit the hGYS2 enzyme and, subsequently, the downstream conversion of NADH to NAD+, were tested using assay ready plates (black, clear bottom 384 well plates) in a final DMSO reaction volume of 2.5% DMSO. The Assay Buffer contained 50 mM Tris pH 7.5, 2 mM MgCl2, and 100 mM KCl. Fresh stocks of BSA at a final concentration of 0.02% and TCEP 1 mM were added before splitting buffer into hGYS2 buffer and substrate buffer. To the hGYS2 buffer, rabbit liver glycogen was added at a final concentration of 0.2% glycogen. Glucose-6-Phosphate was added at 2 mM, recombinant hGYS2/GN1 protein was added at 200 nM to the substrate buffer, phosphoenolpyruvate (PEP) was added at 2 mM, UDP-Glucose was added at 2 mM, NADH was added at 0.6 mM, and Pyruvate Kinase/Lactate Dehydrogenase was added at 20 units/mL. The reaction was initiated by mixing hGYS2 buffer and substrate buffer at a 1:1 ratio. Both buffers were plated using a liquid dispensing device with hGYS2 buffer plated first followed by the substrate buffer. Plates were spun briefly to eliminate air bubbles and are immediately read in continuous mode at an absorbance of 340 nm, for 10 time points in one-minute increments, for a total of 10 minutes. The slope from these 10 time points was normalized to the positive and negative control wells. The duplicate % inhibition values are then averaged and fit to a Hill equation for dose response according to the Levenberg-Marquardt algorithm with the Hill equation maximum set to 100 and the minimum set to 0.
The results are shown in Table 5 below, which reports the IC50 of each compound. Unless otherwise specified, IC50 values are reported as the geometric mean of at least 2 assay runs on separate days. As shown in the table below, the compounds of the present invention are not potent inhibitors of human GYS2. […] Each run represents the average of a technical replicate, where each compound was assayed twice in the same plate.

Broadly, the IC50 is the concentration that inhibits the measured activity by half. As to `CC(=O)Nc1ccccc1[C@H](NC(=O)C1CC1)c1ccc(C(C)C)cc1` [compound 1, (R)-N-((2-acetamidophenyl)(4-isopropylphenyl)methyl)cyclopropanecarboxamide], the results for the IC50 in experiment [1] and in experiment [2] were 285 nM and over 100000 nM, respectively.
For `CC(C)c1ccc([C@@H](NC(=O)[C@H]2C[C@@H]2F)c2ccccc2NC(=O)C2CCN(CC(F)(F)F)CC2)cc1` [compound 9, N-(2-((R)-((1R,2S)-2-fluorocyclopropane-1-carboxamido)(4-isopropylphenyl)methyl)phenyl)-1-(2,2,2-trifluoroethyl)piperidine-4-carboxamide] the same measures were 956 nM and over 100000 nM.
Take `COCCN1CCC(C(=O)Nc2ccccc2[C@H](NC(=O)[C@H]2C[C@@H]2F)c2ccc(C(C)C)cc2)CC1` [compound 13, N-(2-((R)-((1R,2S)-2-fluorocyclopropane-1-carboxamido)(4-isopropylphenyl)methyl)phenyl)-1-(2-methoxyethyl)piperidine-4-carboxamide]: the IC50 in experiment [1] was 1040 nM; in experiment [2], over 100000 nM.
For `CC(C)c1ccc([C@@H](NC(=O)[C@H]2C[C@@H]2F)c2ccccc2NC(=O)C2CCN(CC3CC3)CC2)cc1` [compound 14, 1-(cyclopropylmethyl)-N-(2-((R)-((1R,2S)-2-fluorocyclopropane-1-carboxamido)(4-isopropylphenyl)methyl)phenyl)piperidine-4-carboxamide], in that order: 891 nM and over 100000 nM.
`CC(C)c1ccc([C@@H](NC(=O)C2CC2)c2ccccc2N/C(N)=N/C#N)cc1` [compound 19, (R,E)-N-((2-(2-cyanoguanidino)phenyl)(4-isopropylphenyl)methyl)cyclopropanecarboxamide]: the IC50 in experiment [1] was 304 nM; in experiment [2], over 100000 nM.
For `CC(C)c1ccc([C@@H](NC(=O)C2CC2)c2ccccc2NC(=O)C2CN(C)C2)cc1` [compound 26, (R)-N-(2-(cyclopropanecarboxamido(4-isopropylphenyl)methyl)phenyl)-1-methylazetidine-3-carboxamide] the same measures were 1190 nM and over 100000 nM.
With `CC(C)c1ccc([C@@H](NC(=O)[C@@H]2C[C@H]2F)c2ccccc2)cc1` [compound 27, (1S,2R)-2-fluoro-N-((S)-(4-isopropylphenyl)(phenyl)methyl)cyclopropane-1-carboxamide], the half-inhibitory concentration (IC50) in experiment [1] is 598 nM; in experiment [2], over 100000 nM.
For `CC(C)c1ccc([C@@H](NC(=O)[C@H]2C[C@@H]2F)c2ccccc2)cc1` [compound 36, (1R,2S)-2-fluoro-N-((S)-(4-isopropylphenyl)(phenyl)methyl)cyclopropane-1-carboxamide], in that order: 418 nM and over 100000 nM.
With `CC(=O)N1CC(C(=O)Nc2ccccc2[C@H](NC(=O)C2CC2)c2ccc(C(C)C)cc2)C1` [compound 37, (R)-1-acetyl-N-(2-(cyclopropanecarboxamido(4-isopropylphenyl)methyl)phenyl)azetidine-3-carboxamide], the values for the IC50 in experiment [1] and in experiment [2] were 1060 nM and over 100000 nM, respectively.
For `CC(=O)Nc1ccccc1[C@H](NC(=O)C1CC1)c1ccc(C(C)C)cn1` [compound 46, (S)-N-((2-acetamidophenyl)(5-isopropylpyridin-2-yl)methyl)cyclopropanecarboxamide], in that order: 1420 nM and over 100000 nM.
For `CC(C)c1ccc([C@@H](NC(=O)C2CC2)c2ccccc2NC(=O)C2CNC2)cc1` [compound 48, (R)-N-(2-(cyclopropanecarboxamido(4-isopropylphenyl)methyl)phenyl)azetidine-3-carboxamide] the same measures were 1060 nM and over 100000 nM.
For `CNC(=O)Nc1ccccc1[C@H](NC(=O)C1CC1)c1ccc(C(C)C)cc1` [compound 53, (R)-N-((4-isopropylphenyl)(2-(3-methylureido)phenyl)methyl)cyclopropanecarboxamide] the same measures were 1230 nM and over 100000 nM.
